{"source": "paper PMC7044277", "about": "(Nature Communications, 2020)", "key": {"[1]": {"biological_target": "DRD2 (D2 long receptor) wild-type (Homo sapiens, UniProt P14416)", "sequence (P14416 whole entry)": "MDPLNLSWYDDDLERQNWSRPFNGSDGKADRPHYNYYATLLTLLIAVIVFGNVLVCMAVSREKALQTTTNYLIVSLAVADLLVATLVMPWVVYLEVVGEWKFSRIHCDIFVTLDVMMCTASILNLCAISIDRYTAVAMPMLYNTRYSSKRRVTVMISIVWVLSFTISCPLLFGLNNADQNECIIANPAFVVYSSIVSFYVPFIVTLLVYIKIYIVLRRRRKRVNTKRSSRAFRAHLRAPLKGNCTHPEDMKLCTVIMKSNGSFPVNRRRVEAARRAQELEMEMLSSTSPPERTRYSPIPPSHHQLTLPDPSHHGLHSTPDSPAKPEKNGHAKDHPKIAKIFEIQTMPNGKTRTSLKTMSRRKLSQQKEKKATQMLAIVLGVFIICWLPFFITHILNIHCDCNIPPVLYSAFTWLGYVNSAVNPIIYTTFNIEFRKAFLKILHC", "test": "Radioligand competition binding, [3H]-N-methylspiperone, HEK293T membranes"}, "DRD3 wild-type": {"biological_target": "DRD3 wild-type (Homo sapiens, UniProt P35462)", "sequence (P35462 whole entry)": "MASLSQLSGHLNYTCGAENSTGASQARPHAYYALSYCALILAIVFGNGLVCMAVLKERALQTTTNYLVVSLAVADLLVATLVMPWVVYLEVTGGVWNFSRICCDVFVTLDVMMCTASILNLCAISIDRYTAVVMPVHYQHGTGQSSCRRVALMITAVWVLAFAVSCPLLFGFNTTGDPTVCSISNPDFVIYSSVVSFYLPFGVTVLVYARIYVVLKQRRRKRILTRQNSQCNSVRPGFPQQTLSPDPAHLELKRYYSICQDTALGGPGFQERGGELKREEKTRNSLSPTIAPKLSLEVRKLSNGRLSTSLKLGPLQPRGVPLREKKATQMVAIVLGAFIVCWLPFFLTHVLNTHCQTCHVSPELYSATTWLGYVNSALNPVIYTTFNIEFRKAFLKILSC", "test": "Radioligand competition binding, [3H]-N-methylspiperone"}, "[2]": {"biological_target": "T1, DRD4 (D4.4 variant) wild-type (Homo sapiens, UniProt P21917)", "T1 sequence (P21917 1-419)": "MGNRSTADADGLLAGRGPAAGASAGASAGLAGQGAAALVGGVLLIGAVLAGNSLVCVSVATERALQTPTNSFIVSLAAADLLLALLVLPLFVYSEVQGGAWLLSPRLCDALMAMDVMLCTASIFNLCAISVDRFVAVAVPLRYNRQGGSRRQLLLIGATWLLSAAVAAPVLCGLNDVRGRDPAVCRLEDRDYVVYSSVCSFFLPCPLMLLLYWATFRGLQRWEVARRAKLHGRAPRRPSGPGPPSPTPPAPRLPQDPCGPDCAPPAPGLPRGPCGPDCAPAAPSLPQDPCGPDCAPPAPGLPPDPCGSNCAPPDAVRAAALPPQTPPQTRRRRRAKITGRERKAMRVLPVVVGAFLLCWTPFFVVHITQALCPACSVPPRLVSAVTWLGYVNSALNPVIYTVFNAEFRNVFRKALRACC", "test": "Radioligand competition binding, [3H]-N-methylspiperone", "settings": "DRD4; [3H]-methylspiperone (0.8-1.0 nM); read-out: Ki"}, "DRD2 (D2 long receptor) [3]": {"biological_target": "T2, DRD2 (D2 long receptor) (Homo sapiens, UniProt P14416)", "T2 sequence (P14416 whole entry)": "as the sequence (P14416 whole entry) above", "test": "Gαi/o-mediated cAMP inhibition (GloSensor split-luciferase cAMP reporter), HEK293T;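 note: compounds applied 15 min at room temperature, then luciferin plus 400 nM isoproterenol to raise cAMP through endogenous β2-adrenergic receptors, luminescence read 15 min later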", "format": "cell-based", "settings": "for Response, Fig_S11b dose-response: individual replicates"}, "DRD4 (D4.4 variant) [4]": {"biological_target": "T3, DRD4 (D4.4 variant) (Homo sapiens, UniProt P21917)", "T3 sequence (P21917 1-419)": "T1 sequence (P21917 1-419)", "test": "Gαi/o-mediated cAMP inhibition (GloSensor)", "format": "cell-based", "settings": "DRD4; agonist, cAMP inhibition; read-out: EC50 ± SEM"}, "DRD2 (D2 long receptor) [5]": {"biological_target": "T2, DRD2 (D2 long receptor)", "test": "β-arrestin2 recruitment (Tango), HTLA cells", "format": "cell-based", "settings": "for Response, Fig_S11c dose-response: individual replicates"}, "DRD3": {"biological_target": "DRD3 (Homo sapiens, UniProt P35462)", "sequence (P35462 whole entry)": "as the sequence (P35462 whole entry) above", "test": "β-arrestin2 recruitment (Tango)", "format": "cell-based", "settings": "DRD3; Tango; read-out: EC50 ± SEM"}, "DRD4 (D4.4 variant) [6]": {"biological_target": "T3, DRD4 (D4.4 variant)", "test": "β-arrestin2 recruitment (Tango)", "format": "cell-based", "settings": "DRD4; Tango; read-out: EC50 ± SEM"}, "DRD2 F1103.28A": {"biological_target": "DRD2 F1103.28A (Homo sapiens, UniProt P14416, F110A)", "sequence (P14416 whole entry F110A)": "as the sequence (P14416 whole entry) above, with F110A counted along it", "format": "binding", "design": "expressed in transfected cells; host or cells: HEK293T (ATCC CRL-11268)", "settings": "DRD2 F1103.28A"}}, "note": "Several values for one entry are separate records, joined by “and”; a condition that tells them apart may be missing. Equal values may be shown once."}
{"smiles": "CCCCOc1cccc2cc(C(C)NCC3(O)CCCCC3)oc12.Cl", "note": "(stereo not drawn) [O6LE6]", "values": [{"measurement": "Ki", "setting": "[1]; DRD2, [3H]-methylspiperone (0.8-1.0 nM), read-out: Ki", "value": 2040, "unit": "nM"}, {"measurement": "pKi ± SEM", "setting": "[1]; DRD2 wild-type", "value": "5.69±0.06"}, {"measurement": "Ki", "setting": "DRD3 wild-type; DRD3, [3H]-methylspiperone (0.8-1.0 nM), read-out: Ki", "value": 850, "unit": "nM"}, {"measurement": "pKi ± SEM", "setting": "DRD3 wild-type; DRD3 wild-type", "value": "6.07±0.01"}, {"measurement": "Ki", "setting": "[2]", "value": "> 10000", "unit": "nM"}, {"measurement": "EC50", "setting": "DRD2 (D2 long receptor) [3]; DRD2, agonist, Gαi/o-mediated cAMP inhibition, read-out: EC50 ± SEM", "value": "46.4 ± 15.4", "unit": "nM"}, {"measurement": "Emax relative to quinpirole response", "setting": "DRD2 (D2 long receptor) [3]; DRD2, cAMP inhibition", "value": 96.65, "unit": "%"}, {"measurement": "Response, Fig_S11b dose-response", "setting": "DRD2 (D2 long receptor) [3]; Log[Drug] -5", "value": "81.0159 and 81.9991 and 95.2013 and 90.5911 and 100.378 and 91.8314 and 90.3639 and 94.9855 and 86.3213"}, {"measurement": "Response, Fig_S11b dose-response", "setting": "DRD2 (D2 long receptor) [3]; Log[Drug] -5.52", "value": "88.5768 and 95.2247 and 77.4579 and 98.4012 and 97.1899 and 97.626 and 96.6191 and 98.263 and 92.5248"}, {"measurement": "Response, Fig_S11b dose-response", "setting": "DRD2 (D2 long receptor) [3]; Log[Drug] -6", "value": "91.3624 and 86.7743 and 72.7996 and 95.3198 and 99.2054 and 99.6124 and 91.2428 and 94.603 and 88.8234"}, {"measurement": "Response, Fig_S11b dose-response", "setting": "DRD2 (D2 long receptor) [3]; Log[Drug] -6.52", "value": "80.2434 and 83.1695 and 87.1255 and 85.3392 and 85.0097 and 83.4496 and 88.4512 and 85.5769 and 83.1472"}, {"measurement": "Response, Fig_S11b dose-response", "setting": "DRD2 (D2 long receptor) [3]; Log[Drug] -7", "value": "58.0056 and 50.7491 and 42.2987 and 73.1202 and 72.0543 and 69.6996 and 76.9851 and 77.9363 and 79.6216"}, {"measurement": "Response, Fig_S11b dose-response", "setting": "DRD2 (D2 long receptor) [3]; Log[Drug] -7.52", "value": "45.2247 and 26.7088 and 25.0468 and 53.9826 and 53.3236 and 57.1802 and 56.5964 and 48.0046 and 46.7638"}, {"measurement": "Response, Fig_S11b dose-response", "setting": "DRD2 (D2 long receptor) [3]; Log[Drug] -8", "value": "27.6217 and 13.9045 and 1.873 and 27.4516 and 30.7752 and 36.8798 and 38.172 and 42.1216 and 42.4628"}, {"measurement": "Response, Fig_S11b dose-response", "setting": "DRD2 (D2 long receptor) [3]; Log[Drug] -8.52", "value": "12.8745 and -2.8324 and -17.6966 and 25 and 13.7985 and 29.6899 and 21.5778 and 11.2386 and 28.598"}, {"measurement": "Response, Fig_S11b dose-response", "setting": "DRD2 (D2 long receptor) [3]; Log[Drug] -9", "value": "19.5459 and 15.9176 and 4.8221 and 21.5698 and 25.5426 and 29.7481 and 11.342 and 13.0583 and 27.4194"}, {"measurement": "Response, Fig_S11b dose-response", "setting": "DRD2 (D2 long receptor) [3]; Log[Drug] -11", "value": "6.507 and 4.611"}, {"measurement": "Response, Fig_S11b dose-response", "setting": "DRD2 (D2 long receptor) [3]; Log[Drug] -11.52", "value": "28.839 and 31.7182 and 13.2022 and 1.376 and -1.3857 and 16.4244 and 10.2357 and 2.895 and 29.146"}, {"measurement": "Response, Fig_S11b dose-response", "setting": "DRD2 (D2 long receptor) [3]; Log[Drug] -12", "value": "23.5955 and 3.886 and -4.2135 and -2.9264 and -5.2713 and 2.829 and 6.638 and 20.6162"}, {"measurement": "EC50", "setting": "DRD4 (D4.4 variant) [4]", "value": "> 10000", "unit": "nM"}, {"measurement": "Emax relative to quinpirole response", "setting": "DRD2 (D2 long receptor) [5]; DRD2, Tango", "value": 83.11, "unit": "%"}, {"measurement": "EC50", "setting": "DRD2 (D2 long receptor) [5]; DRD2, β-arrestin2 recruitment (Tango), read-out: EC50 ± SEM", "value": "557 ± 129", "unit": "nM"}, {"measurement": "response, Fig_S11c dose-response source data", "setting": "DRD2 (D2 long receptor) [5]; Fig_S11c, Log[Drug] -5, replicate values", "value": "102.612 and 76.914 and 118.815 and 128.686 and 107.344 and 93.7459 and 91.4018 and 94.1354"}, {"measurement": "Response, Fig_S11c dose-response", "setting": "DRD2 (D2 long receptor) [5]; Log[Drug] -6.52", "value": "31.2199 and 46.2944 and 28.6852"}, {"measurement": "Response, Fig_S11c dose-response", "setting": "DRD2 (D2 long receptor) [5]; Log[Drug] -7", "value": "11.3874 and 10.0089 and 10.6537 and 8.17 and 16.7384 and 23.3506 and 16.3825 and 16.4206 and 21.2486"}, {"measurement": "Response, Fig_S11c dose-response", "setting": "DRD2 (D2 long receptor) [5]; Log[Drug] -7.52", "value": "2.983 and 1.764 and 4.002 and -3.309 and -7.696 and -0.6325 and 11.3698 and 6.994 and 12.6997"}, {"measurement": "Response, Fig_S11c dose-response", "setting": "DRD2 (D2 long receptor) [5]; Log[Drug] -8", "value": "3.216 and 0.7671 and -0.1186 and 4.58 and -7.813 and 8.0383 and 4.755 and 0.516 and 2.286"}, {"measurement": "Response, Fig_S11c dose-response", "setting": "DRD2 (D2 long receptor) [5]; Log[Drug] -8.52", "value": "2.679 and 1.071 and -1.473 and 0.4627 and -3.045 and 4.511 and 0.1556 and -1.011"}, {"measurement": "Response, Fig_S11c dose-response", "setting": "DRD2 (D2 long receptor) [5]; Log[Drug] -9", "value": "0.7411 and 0.1816 and 1.971 and -2.53 and -2.659 and 6.978 and 2.24 and -0.7813 and 0.4791"}, {"measurement": "Response, Fig_S11c dose-response", "setting": "DRD2 (D2 long receptor) [5]; Log[Drug] -9.52", "value": "1.675 and 0.3261 and 1.23 and 1.988 and 0.5154 and 6.132 and 2.922 and -0.3739 and -1.362"}, {"measurement": "Response, Fig_S11c dose-response", "setting": "DRD2 (D2 long receptor) [5]; Log[Drug] -10", "value": "0.7745 and 3.454 and 0.4706 and -6.955 and -3.6985 and -1.1362 and 1.072 and 0.3907 and -1.333"}, {"measurement": "Response, Fig_S11c dose-response", "setting": "DRD2 (D2 long receptor) [5]; Log[Drug] -10.52", "value": "0.1927 and 0.4854 and 0.3409 and -1.124 and 8.703 and 5.11 and 0.478 and 0.806 and 3.44"}, {"measurement": "Response, Fig_S11c dose-response", "setting": "DRD2 (D2 long receptor) [5]; Log[Drug] -11", "value": "0.4891 and -0.1075 and 0.05188 and -6.3018 and 5.0836 and -3.93 and -2.3709 and 4.648 and -1.497"}, {"measurement": "Response, Fig_S11c dose-response", "setting": "DRD2 (D2 long receptor) [5]; Log[Drug] -11.52", "value": "2.264 and 2.713 and 0.6374 and -3.324 and 3.804 and -6.217 and 0.5754 and 2.325 and 0.9369"}, {"measurement": "Response, Fig_S11c dose-response", "setting": "DRD2 (D2 long receptor) [5]; Log[Drug] -12", "value": "0.04817 and -0.3928 and 5.406 and 4.214 and -4.302 and -2.66 and 3.553 and -0.8933"}, {"measurement": "EC50", "setting": "DRD3", "value": "> 10000", "unit": "nM"}, {"measurement": "EC50", "setting": "DRD4 (D4.4 variant) [6]", "value": "> 10000", "unit": "nM"}, {"measurement": "pKi ± SEM", "setting": "DRD2 F1103.28A", "value": "6.53±0.31"}, {"measurement": "Ki", "setting": "DRD2 F1103.28A; read-out: Ki", "value": 300, "unit": "nM"}]}
